Reference: US20210186947A1, “TOMM6-INTERACTING EXTRACTS AND COMPOUNDS FOR USE IN THE TREATMENT AND PROPHYLAXIS OF NERVOUS SYSTEM DISEASES, ATHEROSCLEROSIS, HEPATITIS B INFECTION AND HUMAN PAPILLOMA VIRUS (HPV) INFECTION” (ETH ZURICH, priority 2018, published 2021)
Positions count from the first letter of the chain named.

Legend:
[1] = Measurement of serum level in rats by HPLC; type: in vivo, Sprague Dawley rats
Description: (§1) Serum concentrations of alizarin were determined with serum isolated from the blood of male and female German shepherd dogs (age: 8-9 months) taken at different time points (0.5 h, 1 h, 2 h, 4 h, 6 h, 8 h, 24 h) after oral intake of the indicated doses for 4 weeks. In addition, serum concentrations of alizarin (Compound-1) were determined in male and female Sprague Dawley rats (body weight: 200-250 g) treated for 1 month and/or three months by oral gavage of alizarin at a once daily dose of 100 mg/kg, 50 mg/kg, 25 mg/kg and 12.5 mg/kg. Serum proteins were removed by acetonitrile precipitation, and alizarin was extracted by chloroform before separation on an HPLC-C18 column (Poroshell 120 EC-C18, 3.0×50 mm, Agilent) with an HPLC system (Agilent 1100 Series) and detection at OD245 nm. For quantitative determination of Compound-7 and Compound-10F in rat and dog serum, serum proteins were also removed by acetonitrile precipitation before HPLC analysis as detailed above and detection at OD254 nm.

[2] = tested on: hyperphosphorylated PHF-Tau; test: Hippocampal hyperphosphorylated PHF-Tau in Tg2576 mice subjected to CUMS, binding assay with [125I]-labeled AT8 antibody; type: in vivo; settings: 15 months-old Tg2576 mice, 3 months of CUMS, treated during CUMS; compounds 10 mg/kg/d
Tomm6 [3] = target: T1, Tomm6 (Mus musculus, UniProt Q9CQN3); test: Immunoblot detection of hippocampal Tomm6 protein in treated Tg2576 mice; type: in vivo; settings: Tg2576 AD mice subjected to the CUMS protocol, treated during CUMS (10 mg/kg/d)
T1 construct: hippocampi were isolated from 5-10 aged Tg2576 mice, pulverized under liquid nitrogen and solubilized; from tissue; host or cells: hippocampus of Tg2576 mice
T1 sequence (Q9CQN3 1-74): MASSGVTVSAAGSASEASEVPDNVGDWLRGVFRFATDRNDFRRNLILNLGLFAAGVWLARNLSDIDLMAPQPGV

TOMM6 [4] = target: T2, TOMM6 (Homo sapiens, UniProt Q96B49); test: Screening for TOMM6-inducing compounds in HEK cells, TOMM6 immunoblot; type: cell-based; design: endogenous in cells; host or cells: HEK cells; settings: final concentration 20 microM, 60 h
T2 sequence (Q96B49 1-74): T1 sequence (Q9CQN3 1-74) with G5T, T7P, S15N, A17T, S18P, V20I, F32Y
Description: For immunoblot detection of (hippocampal or HEK cell) proteins, e.g. Tomm6/TOMM6 and Atp6v1a/ATP6V1A, (hippocampal) tissue was pulverized under liquid nitrogen, and HEK cell pellets were directly subjected to protein extraction. Proteins were extracted for 30 min at 4° C. with solubilization buffer (1% sodium deoxycholate, 0.1% SDS, 0.1% NP40, 5 mM EDTA, 50 mM Tris, pH 8.0) supplemented with protease/phosphatase inhibitors (Cat. No. P8349, and/or PPC1010, Sigma-Aldrich, St. Louis, Mo., USA). Particulate material was removed by centrifugation at 50 000×g for 20 min at 4° C. Solubilized proteins were concentrated and delipidated by precipitation with ice-cold acetone/methanol (12:2, final concentration 83%) for 90 min at 4° C. The pellet was dissolved in SDS-sample buffer supplemented with 2% SDS, 0.1 M DTT (or 5% mercaptoethanol), and 6 M urea for 90 min at room temperature. Proteins were stored at a concentration of 0.5 mg-1 mg/ml at −70° C. for further use. Immunoblot detection of proteins was performed with affinity-purified antibodies or F(ab)2 fragments of the respective antibodies after separation of proteins by urea-containing SDS-PAGE (7.5%-10%) under reducing conditions and electrophoretic protein transfer to PVDF membranes in a tank transfer cell (Mini Trans-Blot cell, Bio-Rad GmbH, Munchen, Germany). Bound antibodies were visualized with F(ab)2 fragments of enzyme-coupled secondary antibodies (Dianova GmbH, Hamburg, Germany) pre-absorbed to mouse serum proteins, or by enzyme-coupled protein A (EMD Millipore, Merck KGaA, Darmstadt, Germany) as applicable, and followed by enhanced chemiluminescent detection (ECL Plus, and/or ECL Prime, Amersham, GE Healthcare Life Sciences, Glattbrugg, Switzerland).
TOMM6-inducing compounds were searched for and a screening system was established in HEK cells. HEK cells were cultured in the absence and presence of a test compound at a final concentration of 20 microM. Cells were harvested, proteins were extracted and TOMM6 protein levels were determined in immunoblot with TOMM6-specific antibodies. […] The following TOMM6-interacting (inducing) compounds were identified: Compound-3: N-[(3-chlorophenyl)methyl]-2-(3-piperidyl)oxazole-4-carboxamide; Compound-4: N-[(3,4-dichlorophenyl)methyl]-2-(3-piperidyl)oxazole-4-carboxamide; Compound-5: 2-[(1S)-1-amino-2-methyl-butyl]-N-[(3,4-dichlorophenyl)methyl]oxazole-4-carboxamide; Compound-6: 2-[(1S)-1-amino-2-methyl-propyl]-N-[(3,4-dichlorophenyl)methyl]oxazole-4-carboxamide; Compound-7: 6-(aminomethyl)-4-(4-chlorophenyl)-2-methyl-pyridine-3-carboxamide; Compound-8: 4-(2,4-dichlorophenyl)-6-[(1,3-dioxoisoindolin-2-yl)methyl]-2-methyl-pyridine-3-carboxamide; Compound-9: 4-(4-chlorophenyl)-6-[(1,3-dioxoisoindolin-2-yl)methyl]-2-methyl-pyridine-3-carboxamide; and Compound-10: 4-(4-chlorophenyl)-6-(hydroxymethyl)-2-methyl-pyridine-3-carboxamide).

[5] = Sub-chronic oral toxicity in rats; type: in vivo, Sprague Dawley rats
Description: Sub-chronic toxicity studies in dogs (German Shepherd dogs) and rats (Sprague Dawley rats) were performed by the Center of Applied Analytical and Veterinary Studies, Cairo, Egypt.
The oral toxicity of alizarin (Compound-1) in rats was determined in a sub-chronic toxicity study. Rats were treated for 3 months with a once daily oral dose of alizarin of 25 mg/kg/day, 50 mg/kg/day and 100 mg/kg/day. […] The good tolerability of alizarin in rats and dogs is supported by previous observations in humans, which document that long-term treatment for several years with alizarin and alizarin-containing plant extracts is not toxic and was previously used to prevent recurrence of calcium-containing urinary stones (Lorenz et al., Methods Find. Exp. Clin. Pharmacol. 7, 637-643, 1985). Taken together, alizarin has good oral bioavailability and a wide therapeutic window.
Pharmacokinetic data of Compound-7 were determined as another representative TOMM6/Tomm6 inducer with a different chemical structure than alizarin (Compound-1). […] The oral bioavailability of Compound-7 in dogs was much higher than in rats because oral doses of Compound-7 required to achieve equivalent peak serum concentrations were approximately 10-fold higher in rats compared to dogs (FIG. 20B). Again, this observation is in agreement with the equivalent surface area dosage rule, according to which rats and mice usually require a 10-12-fold higher dose than dogs and humans. […] This second peak could reflect enterohepatic recirculation of Compound-7.

[6] = tested on: hippocampal neuronal cell bodies (NeuN); test: Hippocampal neuronal loss in Tg2576 mice subjected to CUMS, binding assay with [125I]-labeled anti-NeuN antibody; type: in vivo; settings: 15 months-old Tg2576 mice, 3 months of CUMS, treated during CUMS; compounds 10 mg/kg/d
[7] = Tolerability / toxicity in dogs during four weeks of oral treatment; type: in vivo; settings: up to an oral dose of 12.5 mg/kg/day
[8] = Measurement of serum level in dogs by HPLC; type: in vivo, German shepherd dogs; settings: for peak serum concentration: t=1 h
Description: as §1

[9] = Toxic adverse effects during 3 months of treatment of Tg2576 AD mice; type: in vivo; settings: daily dose of 10 mg/kg
TOMM6 [10] = target: T2, TOMM6; test: Tomm6 induction, test not described
[11] = rats, repeated once daily oral intake of 20 mg/kg/d

Structure (SMILES) | TOMM6 protein level in HEK cells (TOMM6 [4]) | hippocampal content of hyperphosphorylated PHF-Tau [2] | hippocampal Tomm6 protein content (Tomm6 [3]) | hippocampal neuronal loss [6] | also measured
Cc1nc(CN)cc(-c2ccc(Cl)cc2)c1C(N)=O [Compound-7, 6-(aminomethyl)-4-(4-chlorophenyl)-2-methyl-pyridine-3-carboxamide] | inducers of TOMM6 | decreased hippocampal PHF tau hyperphosphorylation | strong increase in hippocampal Tomm6 protein content | retarded overt neuronal loss | oral bioavailability / serum concentrations after oral intake ([1]; rats): has oral bioavailability; oral doses required to achieve equivalent peak serum concentrations, higher in rats compared to dogs ([1]; rats vs dogs): approximately 10 fold; time of peak serum concentration [1, 11]: 1 h; time of second serum peak [1, 11]: 3 h; daily food intake ([5]; rats, daily oral dose of 100 mg/kg/d): slightly decreased daily food intake; toxic side effects ([5]; rats, up to an oral dose of 50 mg/kg/day, four weeks): did not show any detectable toxic side effects; difference between therapeutic and toxic doses (therapeutic index) ([5]; therapeutic dose 10 mg/kg once daily in rodent models): approximately 10 fold; toxic side effects [7]: did not show any detectable toxic side effects; oral bioavailability / serum concentrations after oral intake [8]: has oral bioavailability; peak serum concentration ([8]; repeated once daily oral dose of 2 mg/kg): 0.59 µg/mL; peak serum concentration ([8]; repeated once daily oral dosing of 5 mg/kg): 1.56 µg/mL; peak serum concentration ([8]; repeated once daily oral dosing of 12.5 mg/kg): 3.96 µg/mL
Cc1nc(CO)cc(-c2ccc(Cl)cc2)c1C(N)=O [Compound-10, 4-(4-chlorophenyl)-6-(hydroxymethyl)-2-methyl-pyridine-3-carboxamide] | inducers of TOMM6 | significantly inhibited the hippocampal accumulation of hyperphosphorylated PHF tau | significantly higher | retarded the CUMS-induced hippocampal neuronal loss | toxic adverse effects [9]: did not show any detectable toxic adverse effects
C[C@@H]1CCO[C@H]2Cn3cc(C(=O)NCc4ccc(F)cc4F)c(=O)c(O)c3C(=O)N12 [dolutegravir] | – | – | – | – | Tomm6 induction (TOMM6 [10]): not a Tomm6 inducer
O=C(NCc1ccc(Cl)c(Cl)c1)c1coc(C2CCCNC2)n1 (stereo not shown) [Compound-4, N-[(3,4-dichlorophenyl)methyl]-2-(3-piperidyl)oxazole-4-carboxamide] | inducers of TOMM6 | decreased hippocampal PHF tau hyperphosphorylation | strong increase in hippocampal Tomm6 protein content | retarded overt neuronal loss | –
CC(C)[C@H](N)c1nc(C(=O)NCc2ccc(Cl)c(Cl)c2)co1 [Compound-6, 2-[(1S)-1-amino-2-methyl-propyl]-N-[(3,4-dichlorophenyl)methyl]oxazole-4-carboxamide] | inducers of TOMM6 | – | – | – | –

Second part, led by results:

TOMM6 protein level in HEK cells (TOMM6 [4]) | Structure (SMILES) | hippocampal content of hyperphosphorylated PHF-Tau [2] | hippocampal Tomm6 protein content (Tomm6 [3]) | hippocampal neuronal loss [6] | also measured
inducers of TOMM6 | Cc1nc(CN2C(=O)c3ccccc3C2=O)cc(-c2ccc(Cl)cc2Cl)c1C(N)=O [Compound-8, 4-(2,4-dichlorophenyl)-6-[(1,3-dioxoisoindolin-2-yl)methyl]-2-methyl-pyridine-3-carboxamide] | – | – | – | –
inducers of TOMM6 | Cc1nc(CN2C(=O)c3ccccc3C2=O)cc(-c2ccc(Cl)cc2)c1C(N)=O [Compound-9, 4-(4-chlorophenyl)-6-[(1,3-dioxoisoindolin-2-yl)methyl]-2-methyl-pyridine-3-carboxamide] | – | – | – | –
inducers of TOMM6 | CCC(C)[C@H](N)c1nc(C(=O)NCc2ccc(Cl)c(Cl)c2)co1 (stereo partly drawn) [Compound-5, 2-[(1S)-1-amino-2-methyl-butyl]-N-[(3,4-dichlorophenyl)methyl]oxazole-4-carboxamide] | – | – | – | –
inducers of TOMM6 | O=C(NCc1cccc(Cl)c1)c1coc(C2CCCNC2)n1 (stereo not shown) [Compound-3, N-[(3-chlorophenyl)methyl]-2-(3-piperidyl)oxazole-4-carboxamide] | – | – | – | –
